Molecules are shown by their SMILES.

This data set in a line: in vitro. The following applies: human, hela cells, % viability.

A word on the viability: it is a read-out of living cells in per cent, often relative to untreated cells. In the case of `CCn1cc(CN2CCC(O)(c3ccc(C)cc3)CC2)cn1` [CBK282735], the viability at 28.5 h, 10 µM stood at 85.7%.
Turning to `Cc1ccc(C2(O)CCN(Cc3cnn(C)c3C)CC2)cc1` [CBK282736], the viability at 28.5 h, 10 µM came out at 96.5%.
Regarding `Cc1ccccc1-n1nc(C)c(CN2CCC(O)C(C)C2)c1C` (centres unmarked) [CBK282739], the viability at 28.5 h, 10 µM stood at 84.2%.
As for `Cc1ccccc1C(=O)N1C2CCC1CC(O)(Cn1ccnc1C)C2` (centres unmarked) [CBK282740], the viability at 28.5 h, 10 µM worked out at 90.1%.
On to `CCn1cc(CN2C3CCC2CC(O)(c2ccc(F)cc2)C3)cn1` (centres unmarked) [CBK282741], for which the viability at 28.5 h, 10 µM was 77.3%.
Turning to `C=Cn1cc(CN2C3CCC2CC(O)(c2ccc(F)cc2)C3)c(C)n1` (centres unmarked) [CBK282742], the viability at 28.5 h, 10 µM was 80.6%.
Then `Cc1cc2c(cc1C)C(O)CC1(CCN(C(=O)C3CCCC3)CC1)O2` (centres unmarked) [CBK282743], with 81.5%.
Take `COc1ccccc1C1(NCc2cnn(C)c2)CCCC1` [CBK282744]: the viability at 28.5 h, 10 µM was 97%.
As for `CCCC(NC(=O)c1cccc(-n2cnnc2)c1)c1cccs1` (centres unmarked) [CBK282745], the figure is 102%; as for `Cc1ccc2c(CC(=O)N(C)CCN3CCCCC3)coc2c1` [CBK282747], 80.5%; as for `Cc1[nH]c2ccc(F)cc2c1CC(=O)N(C)CCN1CCCCC1` [CBK282748], 84.3%.
In the case of `Cc1ccc2[nH]c(C)c(CC(=O)N(C)CCN3CCCCC3)c2c1` [CBK282749], the viability at 28.5 h, 10 µM came out at 87.8%.
With `Cc1ccc(C2(O)CCN(Cc3cn(C)nc3C)CC2)cc1` [CBK282753], the viability at 28.5 h, 10 µM is 107%.
As for `CCn1ncc(CN2C3CCC2CC(O)(c2cccc(F)c2)C3)c1C` (centres unmarked) [CBK282754], the figure is 91.6%; as for `CCn1ncc(S(=O)(=O)N2CCCC(c3ccccc3)C2)c1C` (centres unmarked) [CBK282760], 100%; as for `CCn1ncc(S(=O)(=O)Nc2ccc3c(c2)cc(C)n3C)c1C` [CBK282761], 95.6%.
Take `O=C(NC1(c2ccc(Cl)cc2)CC1)C1CCS(=O)(=O)C1` (centres unmarked) [CBK282765]: the viability at 28.5 h, 10 µM worked out at 75.3%.
On to `Cc1nn(C)cc1S(=O)(=O)NCC1(c2ccccc2)CCCC1` [CBK282766], for which the viability at 28.5 h, 10 µM was determined as 85.9%.
Consider `CCn1cc(S(=O)(=O)NC2(c3ccccc3)CCCC2)cn1` [CBK282767], for which the viability at 28.5 h, 10 µM amounted to 90.6%.
For the molecule `CCn1cc(S(=O)(=O)NCC2(c3ccccc3)CCCC2)cn1` [CBK282768], the viability at 28.5 h, 10 µM amounted to 97.2%.
As for `CN(C)CCN(Cc1cccnc1)C(=O)Cc1ccc2c(c1)CCC2` [CBK282770], the figure is 109%; as for `Cc1cc(CNS(=O)(=O)N2CCCC2)c2[nH]c(C)c(C)c2c1` [CBK282772], 95.1%.
Regarding `Cc1cnc(C(=O)NC2(c3ccc(Cl)cc3)CCC2)cn1` [CBK282775], the viability at 28.5 h, 10 µM was 95.2%.
For the molecule `NC(=O)Cn1cc(CNC2(c3ccccc3)CC2)c2ccccc21` [CBK282776], the viability at 28.5 h, 10 µM is 94.9%.
Take `OCCN(Cc1ccncc1)CC1(c2ccc(Cl)cc2)CC1` [CBK282782]: the viability at 28.5 h, 10 µM turned out to be 90.7%.
For `Cc1nn(C)cc1S(=O)(=O)N1CCn2cccc2C1C(C)C` (centres unmarked) [CBK282787], the viability at 28.5 h, 10 µM was 99.8%.
Take `Cc1nn(C)cc1S(=O)(=O)Nc1cccc(-c2ccc(F)cc2)c1` [CBK282788]: the viability at 28.5 h, 10 µM is 103%.
For `CCn1c(C)cc2cc(NS(=O)(=O)c3cn(C)nc3C)ccc21` [CBK282789], the viability at 28.5 h, 10 µM was 93.5%.
As to `CCC(CN1CCN(C)CC1)NC(=O)Cc1coc2cc(C)ccc12` (centres unmarked) [CBK282790], the viability at 28.5 h, 10 µM was 102%.
`Cc1nc2sccn2c1CN1CCC(O)(c2ccc(F)cc2)CC1` [CBK282792]: the viability at 28.5 h, 10 µM turned out to be 98.2%.
With `c1ccc(C2(CN3CCN(Cc4cccnc4)CC3)CC2)cc1` [CBK282793], the viability at 28.5 h, 10 µM is 117%.
In the case of `CCCOC1CCCN(Cc2cn(CC(N)=O)c3ccccc23)C1` (centres unmarked) [CBK282796], the viability at 28.5 h, 10 µM was 105%.
For the molecule `CCCOC1CCCN(Cc2c(C)n(CC(N)=O)c3ccccc23)C1` (centres unmarked) [CBK282797], the viability at 28.5 h, 10 µM was 99.2%.
For the molecule `CC(C)(CN1CCCC1)CN1CCC(O)(c2ccccc2F)CC1` [CBK282798], the viability at 28.5 h, 10 µM came to 93.4%.
Take `Cc1nc(CN2CCC(O)(c3ccccc3F)CC2)c2ccccn12` [CBK282799]: the viability at 28.5 h, 10 µM stood at 98.1%.
As to `Cc1nn(C)c(Cl)c1S(=O)(=O)NC1(c2ccc(F)cc2)CC1` [CBK282800], the viability at 28.5 h, 10 µM was found to be 97.5%.
For `CCn1cc(S(=O)(=O)NC2(c3ccc(F)cc3)CC2)cn1` [CBK282801], the viability at 28.5 h, 10 µM stood at 112%.
Consider `CN(CCO)C(=O)CCn1c(C(F)F)cc2cccnc21` [CBK282805], for which the viability at 28.5 h, 10 µM amounted to 91.9%.
For the molecule `Cc1nc2sccn2c1CN1CCc2sccc2C1C` (centres unmarked) [CBK282807], the viability at 28.5 h, 10 µM amounted to 92.4%.
With `OC1(c2ccccc2)CCN(Cc2cncn2Cc2ccccc2)C1` (centres unmarked) [CBK282809], the viability at 28.5 h, 10 µM was 110%.
For the molecule `CCC(CN1CCOCC1)NC(=O)Cc1ccc2c(c1)CCC2` (centres unmarked) [CBK282810], the viability at 28.5 h, 10 µM was found to be 114%.
As for `CCC(CN1CCOCC1)NC(=O)Cc1coc2cc(C)cc(C)c12` (centres unmarked) [CBK282812], the figure is 103%.
`CCC(CN1CCOCC1)NC(=O)Cc1coc2c(C)c(C)ccc12` (centres unmarked) [CBK282813]: the viability at 28.5 h, 10 µM was determined as 82.1%.
`COc1ccc(OC)c2[nH]c(C(=O)N3CCCC34CC=CC4)cc12` [CBK282814]: the viability at 28.5 h, 10 µM turned out to be 85.9%.
As for `Cc1cc(C)n2nc(C(=O)N3CCCC34CC=CC4)cc2n1` [CBK282815], the viability at 28.5 h, 10 µM amounted to 88.7%.
With `CCn1cncc1CN1CCC(O)(c2ccccc2F)CC1` [CBK282817], the viability at 28.5 h, 10 µM was determined as 112%.
For `CCn1cc(S(=O)(=O)Nc2ccc3c(ccn3C)c2)c(C)n1` [CBK282818], the viability at 28.5 h, 10 µM was 84.2%.
As for `Cc1cc2c(cc1C)C(=O)CC1(CCN(C(=O)c3ccco3)CC1)O2` [CBK282819], the figure is 96%; as for `CS(=O)(=O)N1CCC2(CC1)Cn1c(cc3ccccc31)C(=O)O2` [CBK282820], 87.1%; as for `O=C(Cc1ccccn1)NC(Cc1ccsc1)c1nccs1` (centres unmarked) [CBK282821], 85.7%.
Turning to `Cc1nc(C)c(C(=O)NC(Cc2ccsc2)c2nccs2)s1` (centres unmarked) [CBK282822], the viability at 28.5 h, 10 µM came to 82.3%.
In the case of `Cc1cnn(CC(=O)NC(Cc2ccsc2)c2nccs2)c1` (centres unmarked) [CBK282825], the viability at 28.5 h, 10 µM worked out at 105%.
`CC(=O)N1CCC2(CC1)CC(O)c1cc(C)c(C)cc1O2` (centres unmarked) [CBK282826]: the viability at 28.5 h, 10 µM stood at 107%.
In the case of `COc1ccc(C2(NCc3ccc(N4CCCC4=O)cc3)CC2)cc1` [CBK282834], the viability at 28.5 h, 10 µM stood at 103%.
As for `COc1ccc(C2(NCc3ccc4c(c3)n(C)c(=O)n4C)CC2)cc1` [CBK282836], the viability at 28.5 h, 10 µM amounted to 103%.
For the molecule `Cc1cc2c(cc1C)C(O)CC1(CCN(C(=O)c3ccco3)CC1)O2` (centres unmarked) [CBK282839], the viability at 28.5 h, 10 µM amounted to 84%.
In the case of `Cc1ccc(N2CCCC2=O)cc1S(=O)(=O)NC1C2CCCCC21` (centres unmarked) [CBK282840], the viability at 28.5 h, 10 µM came to 69%.
Regarding `O=C1CCCN1c1ccc(S(=O)(=O)NC2C3CCCCC32)cc1` (centres unmarked) [CBK282842], the viability at 28.5 h, 10 µM turned out to be 101%.
Regarding `Cn1cc(C(=O)NCC(c2ccc(F)cc2)N2CCCC2)ccc1=O` (centres unmarked) [CBK282843], the viability at 28.5 h, 10 µM is 87.4%.
Turning to `CN(C)CCN(Cc1cccs1)Cc1cc(Cl)ccc1O` [CBK282847], the viability at 28.5 h, 10 µM was 86.2%.
As to `CC12CN(Cc3ccccc3)CC1NC(=O)c1ccccc1C2N` (centres unmarked) [CBK282850], the viability at 28.5 h, 10 µM was determined as 99.5%.
Turning to `CCC(C)NC(=O)C1=CCN(S(C)(=O)=O)C1` (centres unmarked) [CBK282861], the viability at 28.5 h, 10 µM amounted to 101%.
Take `c1coc(C2N3CCC4(CC3)c3[nH]c5ccccc5c3CCN24)c1` (centres unmarked) [CBK282862]: the viability at 28.5 h, 10 µM is 112%.
Take `O=C1CC2(CCN(C(=O)C3CCCCC3)CC2)Oc2ccc(F)cc21` [CBK282863]: the viability at 28.5 h, 10 µM turned out to be 74.6%.
As for `C=CCn1c2cc(C)sc2c2cnn(CCC(C)=O)c(=O)c21` [CBK282868], the viability at 28.5 h, 10 µM is 95.7%.
Then `CCc1nn(CCC(C)O)c(=O)c2cc3sc(C)cc3n12` (centres unmarked) [CBK282869], with 89.1%; and `O=C1Oc2nc3ccccc3cc2CN1C1CC1` [CBK282870], with 87.9%; and `O=C(CN1C(=O)N2CCN=C2c2ccc(Cl)cc21)NCC1CC1` [CBK282877], with 94.2%.
As for `Cc1cc(-c2cc(=O)n(Cc3ccccc3C)nc2-c2ccco2)on1` [CBK282878], the figure is 96.7%.
Consider `Nc1cc(-c2ccco2)nn(Cc2c(Cl)cccc2Cl)c1=O` [CBK282880], for which the viability at 28.5 h, 10 µM was 112%.
For the molecule `Nc1cc(-c2ccco2)nn(Cc2c(F)cccc2Cl)c1=O` [CBK282881], the viability at 28.5 h, 10 µM amounted to 86.1%.
Consider `CC1Cc2cc(CCC(=O)N3CCCc4c(cnn4C)C3)ccc2O1` (centres unmarked) [CBK282882], for which the viability at 28.5 h, 10 µM is 100%.
Turning to `CCCc1ccc(C(=O)NCC(C)n2cncn2)o1` (centres unmarked) [CBK282883], the viability at 28.5 h, 10 µM turned out to be 92.5%.
`COc1ccc(CC(=O)NC2CC(C)(C)Cc3c2cnn3C)cc1` (centres unmarked) [CBK282886]: the viability at 28.5 h, 10 µM was determined as 99%.
`Cc1cc2cc(C(F)(F)F)nc-2n(CC(=O)NC2CC2)c1` [CBK282888]: the viability at 28.5 h, 10 µM turned out to be 106%.
Consider `CC(C)CC(=O)N1CCCC(n2c(=O)oc3ccc(Cl)cc32)C1` (centres unmarked) [CBK282891], for which the viability at 28.5 h, 10 µM is 89.3%.
Consider `O=C(c1ccco1)N1CCCC(n2c(=O)oc3ccc(Cl)cc32)C1` (centres unmarked) [CBK282892], for which the viability at 28.5 h, 10 µM was 91.5%.
For `Cc1ccc2c(c1)C(=O)NCC1(CCN(C(=O)c3ccco3)CC1)O2` [CBK282894], the viability at 28.5 h, 10 µM stood at 100%.
Then `C=CCNCc1cc2c(C)nn(-c3ccccc3)c2[nH]c1=O` [CBK282898], with 88.7%; and `CC(=O)N1CCc2sccc2C1c1ccccc1NC(=O)C1CC1` (centres unmarked) [CBK282903], with 95%; and `COc1ccc(F)c(C2NC(=O)CCC2N)c1` (centres unmarked) [CBK282905], with 97.6%.
Take `CC(=O)N1CCc2sccc2C1c1ccc(NC(=O)C2CC2)cc1` (centres unmarked) [CBK282907]: the viability at 28.5 h, 10 µM stood at 87.8%.
As to `CC(C)n1cccc1CN[C@@H]1CCC(=O)N[C@H]1c1cccc(F)c1` [CBK282908], the viability at 28.5 h, 10 µM is 91.1%.

Source of the values: paper PMC12040169 (PLOS Biology, 2025).
